Results as given in patent US20220331414A1, “LIPID COMPOUNDS AND LIPID NANOPARTICLE COMPOSITIONS” (Suzhou Abogen Biosciences Co., Ltd., priority 2020, published 2022).

How the values were obtained:
[1] = Apparent pKa of LNP formulations by TNS fluorescence assay; conditions: LNP cationic lipid/DSPC/cholesterol/DMG-PEG 50/10/38.5/1.5 mol %, pH 3 to 9
Procedure: TNS was prepared as a 300 uM stock solution in distilled water. LNP formulations were diluted to 0.1 mg/ml total lipid in 3 mL of buffered solutions containing 50 mM sodium citrate, 50 mM sodium phosphate, 50 mM sodium borate, and 30 mM sodium chloride where the pH ranged from 3 to 9. An aliquot of the TNS solution was added to give a final concentration of 0.1 mg/ml and following vortex mixing fluorescence intensity was measured at room temperature in a Molecular Devices Spectramax iD3 spectrometer using excitation and mission wavelengths of 325 nm and 435 nm. A sigmoidal best fit analysis was applied to the fluorescence data and the pKa value was measured as the pH giving rise to half—maximal fluorescent intensity.

[2] = Encapsulation efficiency of lipid nanoparticles (Quant-it Ribogreen RNA assay); assay type: physicochemical; conditions: LNP of cationic lipid/DSPC/cholesterol/PEG-lipid 50:10:38.5:1.5 with mRNA
Procedure: (§1) Briefly, a cationic lipid provided herein, DSPC, cholesterol, and PEG-lipid were solubilized in ethanol at a molar ratio of 50:10:38.5:1.5, and mRNA were diluted in 10 to 50 mM citrate buffer, pH=4. The LNPs were prepared at a total lipid to mRNA weight ratio of approximately 10:1 to 30:1 by mixing the ethanolic lipid solution with the aqueous mRNA solution at a volume ratio of 1:3 using a microfluidic apparatus, total flow rate ranging from 9-30 mL/min. Ethanol were thereby removed and replaced by DPBS using dialysis. Finally, the lipid nanoparticles were filtered through a 0.2 μm sterile filter.
(§2) Lipid nanoparticle size were determined by dynamic light scattering using a Malvern Zetasizer Nano ZS (Malvern UK) using a 173° backscatter detection mode. The encapsulation efficiency of lipid nanoparticles were determined using a Quant-it Ribogreen RNA quantification assay kit (Thermo Fisher Scientific, UK) according to the manufacturer's instructions.

[3] = Lipid nanoparticle size and polydispersity by dynamic light scattering; assay type: physicochemical; conditions: LNP of cationic lipid/DSPC/cholesterol/PEG-lipid 50:10:38.5:1.5 with mRNA
Procedure: as §1, §2

SMILES	Apparant Pka [1]	Encapsulation Efficiency [2] [%]	polydispersity [3]	size (nm) [3] [nm]
CCCCCCCCC(CCCCCC)COP(=O)(NCCN(CCO)C1CCCC1)OCC(CCCCCC)CCCCCCCC (stereo not shown) [Compound 58]	5.681	88.8	0.057	97.61
CCCCCCCCCOC(=O)CCCCCOP(=O)(NCCCN(C)C)OCCCCCC(=O)OCCCCCCCCC [Compound 6]	7.33	88.3	0.262	111.7
CCCCCCCCC(CCCCCC)COP(=O)(NCCN1CCC(O)C1)OCC(CCCCCC)CCCCCCCC (stereo not shown) [Compound 63]	6.892	97.0	0.148	53.85
CCCCCCCCC(CCCCCC)COP(=O)(NCCCN1CCC1)OCC(CCCCCC)CCCCCCCC (stereo not shown) [Compound 23]	7.43	100.4	0.234	57.36
CCCCCCCCC(CCCCCC)COP(=O)(NCCN(CCO)CCCCC)OCC(CCCCCC)CCCCCCCC (stereo not shown) [Compound 55]	5.615	90.9	0.132	62.03
CCCCCCCCC(CCCCCC)COP(=O)(NCCN1CCCCC1)OCC(CCCCCC)CCCCCCCC (stereo not shown) [Compound 26]	4.99	93.6	0.27	68.19
CCCCCCCCCCCCCOP(=O)(NCCCN(C)C)OCCCCCCCC(=O)OC(CCCCCCCC)CCCCCCCC (stereo not shown) [Compound 39]	6.52	100.0	0.408	69.38
